Measured values reported in paper PMC7917639, “Nopol-Based Quinoline Derivatives as Antiplasmodial Agents” (Molecules, 2021).

System: Human hepatocarcinoma cell line (Hep G2)
Experiment: Cytotoxicity assay (MTT)
Format: cell-based
Conditions: SDS 0.1%, assay positive control

For `CCCCCCCCCCCCOS(=O)(=O)[O-].[Na+]` [SDS (0.1%)], which “Hep G2 percent viability” value is on record?
The value was “^b 1%”.
